In publication PMC6216040, “Repurposing of an old drug: In vitro and in vivo efficacies of buparvaquone against Echinococcus multilocularis” (International Journal for Parasitology: Drugs and Drug …, 2018):
Where two headings read alike, the source gives them in different places.

Test system: E. multilocularis metacestodes
Experiment: PGI-assay: drug-induced damage on in vitro cultured metacestodes (Pathogen Box screening cascade and EC50)
Format: cell-based, Echinococcus multilocularis
Settings: for PGI release, % of the Tx-100 control, 5d / PGI release, % of the Tx-100 control, 12d / cytotoxicity at 10 µM: 10 µM, singlets; for PGI release, % of Tx-100 control, average, 5d / PGI release, % of Tx-100 control, average, 12d: confirmatory screening at 10 µM in triplicates, values as % of Tx-100 control; for cytotoxicity at 10 µM: Echinococcus multilocularis
[1] = 120 h, 5 days of incubation, read-out: PGI release, % of the Tx-100 control, 5d
[2] = 288 h, 12 days of incubation, read-out: PGI release, % of the Tx-100 control, 12d

SMILES: Nc1nc(N)c2c3c(sc2n1)CN(Cc1ccccc1)CC3 [MMV688345]
- PGI release, % of the Tx-100 control, 5d (5 days of incubation): -0.50%
- PGI release, % of the Tx-100 control, 12d (12 days of incubation): -0.61%

SMILES: COC(=O)c1ccc(F)cc1NS(=O)(=O)c1cccc(-c2cnn(Cc3ccccc3)c2)c1 [MMV688350]
- PGI release, % of the Tx-100 control, 5d (5 days of incubation): -0.16%
- PGI release, % of the Tx-100 control, 12d (12 days of incubation): 0.44%

SMILES: O=C1[C@@H](Oc2ccccc2)[C@@H](c2ccc(Cl)cc2)N1CCn1cnc2c(NCc3ccccc3)ncnc21 [MMV688352]
- PGI release, % of the Tx-100 control, 5d (5 days of incubation): 2.57%
- PGI release, % of the Tx-100 control, 12d (12 days of incubation): 3.05%

SMILES: c1cc(C2=NCCN2)cc(-c2cc(-c3ccc(C4=NCCN4)cc3)no2)c1 [MMV688361]
- PGI release, % of the Tx-100 control, 5d (5 days of incubation): -0.63%
- PGI release, % of the Tx-100 control, 12d (12 days of incubation): -1.49%

SMILES: COc1cc(C2=NCCN2)cc2cc(-c3ccc(C4=NCCN4)cc3)oc12 [MMV688362]
- PGI release, % of the Tx-100 control, 5d (5 days of incubation): 0.03%
- PGI release, % of the Tx-100 control, 12d (12 days of incubation): 0.64%

SMILES: CC(C)(C)OC(=O)N1CCC(Cn2nc(-c3cnc4ccccc4c3)c3c(N)ncnc32)CC1 [MMV688364]
- PGI release, % of the Tx-100 control, 5d (5 days of incubation): 0.11%
- PGI release, % of the Tx-100 control, 12d (12 days of incubation): -0.13%

SMILES: NCCN(C(=O)c1ccc(Cl)cc1Cl)c1ccc(OCc2ccc(Cl)cc2)cc1 [MMV688371]
- PGI release, % of the Tx-100 control, 5d (5 days of incubation): 45.68%
- PGI release, % of the Tx-100 control, 12d (12 days of incubation): 52.47%
- PGI release, % of Tx-100 control, average, 5d (5 days of incubation): 3.16%
- PGI release, % of Tx-100 control, average, 12d (12 days of incubation): 3.77%

SMILES: O=C(Nc1ccc(F)c(-c2nc3ncc(-c4ccccc4)cc3[nH]2)c1)N1CCCC1 [MMV688372]
- PGI release, % of the Tx-100 control, 5d (5 days of incubation): 1.21%
- PGI release, % of the Tx-100 control, 12d (12 days of incubation): 0.82%

SMILES: COc1cc(C2=NCCN2)ccc1-c1cn(-c2cccc(C3=NCCN3)c2)nn1 [MMV688407]
- PGI release, % of the Tx-100 control, 5d (5 days of incubation): 1.48%
- PGI release, % of the Tx-100 control, 12d (12 days of incubation): 1.29%

SMILES: CC1=Nc2ccc(Cl)cc2C(c2ccccc2)N1CCNC(=O)CN(C)C (stereo not drawn) [MMV688410]
- PGI release, % of the Tx-100 control, 5d (5 days of incubation): 0.08%
- PGI release, % of the Tx-100 control, 12d (12 days of incubation): -1.09%

SMILES: Nc1ncnc2c1c(-c1cnc3ccccc3c1)nn2CC1CCNCC1 [MMV688411]
- PGI release, % of the Tx-100 control, 5d (5 days of incubation): -0.63%
- PGI release, % of the Tx-100 control, 12d (12 days of incubation): -1.19%

SMILES: CO[C@@H]1CN(c2ccc(C#CC3(O)CN4CCC3CC4)c(Cc3ccccc3)n2)C[C@H]1O (stereo partly drawn) [MMV688415]
- PGI release, % of the Tx-100 control, 5d (5 days of incubation): 3.28%
- PGI release, % of the Tx-100 control, 12d (12 days of incubation): -0.74%

SMILES: CC(C)(C)OC(=O)N1CCN(c2nccc(-c3ccc(-c4ccc(Cl)cc4)s3)n2)CC1 [MMV688416]
- PGI release, % of the Tx-100 control, 5d (5 days of incubation): -0.30%
- PGI release, % of the Tx-100 control, 12d (12 days of incubation): -2.84%

SMILES: CC(C)n1nc(-c2cc3c(Cl)cccc3[nH]2)c2c(N)ncnc21 [MMV688417]
- PGI release, % of the Tx-100 control, 5d (5 days of incubation): -4.81%
- PGI release, % of the Tx-100 control, 12d (12 days of incubation): -2.43%

SMILES: Cn1ccnc1CNCCS(=O)(=O)c1cccc(Nc2ccc(-c3cccc(F)c3)cn2)c1 [MMV688466]
- PGI release, % of the Tx-100 control, 5d (5 days of incubation): -0.60%
- PGI release, % of the Tx-100 control, 12d (12 days of incubation): -2.11%

SMILES: CCCCN(CCCC)c1c(C#N)cc(S(=O)(=O)Nc2ccccc2)cc1C#N [MMV688467]
- PGI release, % of the Tx-100 control, 5d (5 days of incubation): 17.50%
- PGI release, % of the Tx-100 control, 12d (12 days of incubation): 35.72%
- PGI release, % of Tx-100 control, average, 5d (5 days of incubation): 4.92%
- PGI release, % of Tx-100 control, average, 12d (12 days of incubation): 11.29%

SMILES: Nc1ncnc2n[nH]c(Cc3cccc4ccccc34)c12 [MMV688469]
- PGI release, % of the Tx-100 control, 5d (5 days of incubation): -0.61%
- PGI release, % of the Tx-100 control, 12d (12 days of incubation): -1.22%

SMILES: CS(=O)(=O)N1CCC(CCn2nc(Cc3cccc4ccccc34)c3c(N)ncnc32)CC1 [MMV688470]
- PGI release, % of the Tx-100 control, 5d (5 days of incubation): 1.33%
- PGI release, % of the Tx-100 control, 12d (12 days of incubation): 2.31%

SMILES: CC(C(=O)Nc1ccc2oc(-c3ccncc3)nc2c1)c1ccccc1 (stereo not drawn) [MMV688471]
- PGI release, % of the Tx-100 control, 5d (5 days of incubation): -1.25%
- PGI release, % of the Tx-100 control, 12d (12 days of incubation): 5.56%

SMILES: CC(Oc1cccc(Cl)c1)C(=O)Nc1ccc2oc(-c3ccncc3)nc2c1 (stereo not drawn) [MMV688472]
- PGI release, % of the Tx-100 control, 5d (5 days of incubation): -0.36%
- PGI release, % of the Tx-100 control, 12d (12 days of incubation): 0.44%

SMILES: COc1cc(C2=NCCN2)ccc1-n1cc(-c2cccc(C3=NCCN3)c2)nn1 [MMV688474]
- PGI release, % of the Tx-100 control, 5d (5 days of incubation): -0.50%
- PGI release, % of the Tx-100 control, 12d (12 days of incubation): -0.97%

SMILES: CC(=O)NCC1CN(c2ccc(-c3ccc(CO)cc3)c(F)c2)C(=O)O1 (stereo not drawn) [MMV688508]
- PGI release, % of the Tx-100 control, 5d (5 days of incubation): -0.03%
- PGI release, % of the Tx-100 control, 12d (12 days of incubation): -1.49%

SMILES: O=C(OCc1ccccc1)N1CCC(c2cc(-c3ccncc3)c(-c3ccc(F)cc3)[nH]2)CC1 [MMV688509]
- PGI release, % of the Tx-100 control, 5d (5 days of incubation): 0.97%
- PGI release, % of the Tx-100 control, 12d (12 days of incubation): 2.28%

SMILES: N=C(N)c1ccc(-c2cc(-c3ccccc3)on2)cc1 [MMV688514]
- PGI release, % of the Tx-100 control, 5d (5 days of incubation): -2.10%
- PGI release, % of the Tx-100 control, 12d (12 days of incubation): 0.39%

SMILES: CC(C)(C)C(=O)N(CCCCCCN1C[C@H](O)[C@@H](O)[C@H](O)[C@H]1CO)C1CCCCCC1 [MMV688543]
- PGI release, % of the Tx-100 control, 5d (5 days of incubation): -1.12%
- PGI release, % of the Tx-100 control, 12d (12 days of incubation): -4.43%

SMILES: COc1ccc(C2=NCCN2)cc1-c1cn(-c2cccc(C3=NCCN3)c2)nn1 [MMV688547]
- PGI release, % of the Tx-100 control, 5d (5 days of incubation): -0.44%
- PGI release, % of the Tx-100 control, 12d (12 days of incubation): -1.41%

SMILES: CC(C)(C)n1nc(-c2ccccc2)c2c(N)ncnc21 [MMV688548]
- PGI release, % of the Tx-100 control, 5d (5 days of incubation): -2.51%
- PGI release, % of the Tx-100 control, 12d (12 days of incubation): 1.17%

SMILES: CCc1ccccc1-n1c(C)cn2c3c(=O)n(C(C(=O)OC)C(C)C)c(=O)n(C)c3nc12 (stereo not drawn) [MMV688550]
- PGI release, % of the Tx-100 control, 5d (5 days of incubation): -2.01%
- PGI release, % of the Tx-100 control, 12d (12 days of incubation): -6.25%

SMILES: Cc1nn(C(=O)Nc2cccc(C(F)(F)F)c2)c(C)c1Sc1ncccn1 [MMV688552]
- PGI release, % of the Tx-100 control, 5d (5 days of incubation): 0.35%
- PGI release, % of the Tx-100 control, 12d (12 days of incubation): 1.89%

SMILES: O=C(NCc1ccoc1)N1CCN(Cc2ccc3c(c2)OCO3)CC1 [MMV688553]
- PGI release, % of the Tx-100 control, 5d (5 days of incubation): 0.80%
- PGI release, % of the Tx-100 control, 12d (12 days of incubation): -2.91%

SMILES: CNc1snc(C)c1C(=O)NCCOc1ccc(OC)cc1 [MMV688554]
- PGI release, % of the Tx-100 control, 5d (5 days of incubation): -1.97%
- PGI release, % of the Tx-100 control, 12d (12 days of incubation): 1.18%

SMILES: O=C(NCc1ccco1)N1CCN(Cc2ccc(Cl)s2)CC1 [MMV688555]
- PGI release, % of the Tx-100 control, 5d (5 days of incubation): 1.40%
- PGI release, % of the Tx-100 control, 12d (12 days of incubation): 3.17%

SMILES: NCC(c1cccs1)S(=O)(=O)c1ccccc1 (stereo not drawn) [MMV688557]
- PGI release, % of the Tx-100 control, 5d (5 days of incubation): 0.26%
- PGI release, % of the Tx-100 control, 12d (12 days of incubation): -2.41%

SMILES: CN1CCC(c2cc(-c3ccncc3)c(-c3ccc(F)cc3)[nH]2)CC1 [MMV688703]
- PGI release, % of the Tx-100 control, 5d (5 days of incubation): 0.17%
- PGI release, % of the Tx-100 control, 12d (12 days of incubation): -2.29%

SMILES: Cc1cc2nc(NC(=O)C(C)(C)C)nc(Cl)c2n1Cc1ccc(Cl)cc1 [MMV688704]
- PGI release, % of the Tx-100 control, 5d (5 days of incubation): 5.09%
- PGI release, % of the Tx-100 control, 12d (12 days of incubation): -0.53%

SMILES: CON=C(C(=O)OC)c1ccccc1CON=C(C)c1cccc(C(F)(F)F)c1 [MMV688754, Trifloxystrobin]
- cytotoxicity at 10 µM [1]: -1.92%
- cytotoxicity at 10 µM [2]: -5.74%

SMILES: O=[N+]([O-])c1cn2c(n1)OC[C@@H](OCc1ccc(OC(F)(F)F)cc1)C2 [MMV688755, Pretomanid, reference compound]
- cytotoxicity at 10 µM [1]: -0.93%
- cytotoxicity at 10 µM [2]: -1.01%

SMILES: CC(=O)NC[C@H]1CN(c2ccc(N3CCSCC3)c(F)c2)C(=O)O1 [MMV688756, Sutezolid, reference compound]
- cytotoxicity at 10 µM [1]: -3.45%
- cytotoxicity at 10 µM [2]: -0.37%

SMILES: CS(=O)(=O)c1ccc(C(=O)N(CC2CCCO2)c2nc3ccccc3s2)cc1[N+](=O)[O-] (stereo not drawn) [MMV688761]
- PGI release, % of the Tx-100 control, 5d (5 days of incubation): 1.26%
- PGI release, % of the Tx-100 control, 12d (12 days of incubation): 0.42%

SMILES: c1ccc(-c2[nH]c3ccccc3c2C(c2ccccn2)N2CCCC2)cc1 (stereo not drawn) [MMV688762]
- PGI release, % of the Tx-100 control, 5d (5 days of incubation): 0.82%
- PGI release, % of the Tx-100 control, 12d (12 days of incubation): 0.77%
